# ChEMBL document CHEMBL1201862, “PubChem BioAssay data set” (2004)
#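 Cells were grown in 96-well plates and exposed to each compound for 48 hours at five concentrations; endpoints were interpolated linearly between bracketing concentrations, or set to the highest concentration if not reached. GI50: concentration for 50% inhibition of growth.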 Calls of active or inactive are those of the source. Rule as the data show it: active = GI50 up to about 1.1 µM and inactive = higher.
# How the values were obtained:
# Assay in all cases: inhibition of tumour cell growth, NCI panel, 48 h
# CCRF-CEM = system: CCRF-CEM
# RPMI-8226 = system: RPMI-8226
# A549 = system: A549
# SF-539 = system: SF-539
# COLO 205 = system: COLO 205
# EKVX = system: EKVX
# M14 = system: M14
# SN12C = system: SN12C
# MDA-MB-231 = system: MDA-MB-231
# NCI-H522 = system: NCI-H522
# HL-60 = system: HL-60
# NCI-H23 = system: NCI-H23
# OVCAR-8 = system: OVCAR-8
# SR = system: SR
# MCF7 = system: MCF7
# HCT-116 = system: HCT-116
# NCI-H226 = system: NCI-H226
# PC-3 = system: PC-3
# SK-MEL-28 = system: SK-MEL-28
# HCC 2998 = system: HCC 2998
# NCI/ADR-RES = system: NCI/ADR-RES
# MDA-MB-435 = system: MDA-MB-435
# HCT-15 = system: HCT-15
# BT-549 = system: BT-549
# SF-295 = system: SF-295
# OVCAR-4 = system: OVCAR-4
# HOP-62 = system: HOP-62
# SNB-19 = system: SNB-19
# CAKI-1 = system: CAKI-1
# TK-10 = system: TK-10
# ACHN = system: ACHN
# NCI-H460 = system: NCI-H460
# Malme-3M = system: Malme-3M
# DU-145 = system: DU-145
# SW-620 = system: SW-620
# SK-MEL-2 = system: SK-MEL-2
# HT-29 = system: HT-29
# UACC-257 = system: UACC-257
# HOP-92 = system: HOP-92
# SK-MEL-5 = system: SK-MEL-5
# MOLT-4 = system: MOLT-4
# LOX IMVI = system: LOX IMVI
# U-251 = system: U-251
# OVCAR-5 = system: OVCAR-5
# IGROV-1 = system: IGROV-1
# 786-0 = system: 786-0
# KM12 = system: KM12
# K562 = system: K562
# UACC-62 = system: UACC-62
# A498 = system: A498
# RXF 393 = system: RXF 393
# MDA-N = system: MDA-N
# T47D = system: T47D
# OVCAR-3 = system: OVCAR-3
# SK-OV-3 = system: SK-OV-3
# UO-31 = system: UO-31
# SNB-75 = system: SNB-75
# SF-268 = system: SF-268
compound,measurement,setting,value
COCCOC(=O)NCn1cc(-c2ccccc2)nn1,GI50,CCRF-CEM,> 100 µM (inactive)
same,GI50,RPMI-8226,> 100 µM (inactive)
same,GI50,A549,> 100 µM (inactive)
same,GI50,SF-539,> 100 µM (inactive)
same,GI50,COLO 205,> 100 µM (inactive)
same,GI50,EKVX,> 100 µM (inactive)
same,GI50,M14,> 100 µM (inactive)
same,GI50,SN12C,> 100 µM (inactive)
same,GI50,MDA-MB-231,> 100 µM (inactive)
same,GI50,NCI-H522,> 100 µM (inactive)
same,GI50,HL-60,> 100 µM (inactive)
same,GI50,NCI-H23,> 100 µM (inactive)
same,GI50,OVCAR-8,> 100 µM (inactive)
same,GI50,SR,> 100 µM (inactive)
same,GI50,MCF7,> 100 µM (inactive)
same,GI50,HCT-116,> 100 µM (inactive)
same,GI50,NCI-H226,13.8 µM (inactive)
same,GI50,PC-3,> 100 µM (inactive)
same,GI50,SK-MEL-28,> 100 µM (inactive)
same,GI50,HCC 2998,> 100 µM (inactive)
same,GI50,NCI/ADR-RES,> 100 µM (inactive)
same,GI50,MDA-MB-435,> 100 µM (inactive)
same,GI50,HCT-15,> 100 µM
same,GI50,BT-549,> 100 µM (inactive)
same,GI50,SF-295,> 100 µM (inactive)
same,GI50,OVCAR-4,> 100 µM (inactive)
same,GI50,HOP-62,> 100 µM (inactive)
same,GI50,SNB-19,> 100 µM (inactive)
same,GI50,CAKI-1,> 100 µM (inactive)
same,GI50,TK-10,> 100 µM (inactive)
same,GI50,ACHN,> 100 µM (inactive)
same,GI50,NCI-H460,> 100 µM (inactive)
same,GI50,Malme-3M,> 100 µM (inactive)
same,GI50,DU-145,> 100 µM (inactive)
same,GI50,SW-620,> 100 µM (inactive)
same,GI50,SK-MEL-2,> 100 µM (inactive)
same,GI50,HT-29,> 100 µM (inactive)
same,GI50,UACC-257,> 100 µM (inactive)
same,GI50,HOP-92,> 100 µM (inactive)
same,GI50,SK-MEL-5,> 100 µM (inactive)
same,GI50,MOLT-4,> 100 µM (inactive)
same,GI50,LOX IMVI,> 100 µM (inactive)
same,GI50,U-251,> 100 µM (inactive)
same,GI50,OVCAR-5,> 100 µM (inactive)
same,GI50,IGROV-1,> 100 µM (inactive)
same,GI50,786-0,> 100 µM (inactive)
same,GI50,KM12,> 100 µM (inactive)
same,GI50,K562,> 100 µM (inactive)
CCOC(=O)C(=CN1CCNC1=S)C(=O)OCC,GI50,CCRF-CEM,> 100 µM (inactive)
same,GI50,RPMI-8226,> 100 µM (inactive)
same,GI50,A549,> 100 µM (inactive)
same,GI50,SF-539,> 100 µM (inactive)
same,GI50,UACC-62,> 100 µM (inactive)
same,GI50,COLO 205,> 100 µM (inactive)
same,GI50,EKVX,> 100 µM (inactive)
same,GI50,M14,> 100 µM (inactive)
same,GI50,SN12C,> 100 µM (inactive)
same,GI50,MDA-MB-231,> 100 µM (inactive)
same,GI50,A498,18.2 µM (inactive)
same,GI50,NCI-H522,62.7 µM (inactive)
same,GI50,HL-60,> 100 µM (inactive)
same,GI50,NCI-H23,> 100 µM (inactive)
same,GI50,OVCAR-8,> 100 µM (inactive)
same,GI50,SR,> 100 µM (inactive)
same,GI50,MCF7,> 100 µM (inactive)
same,GI50,HCT-116,> 100 µM (inactive)
same,GI50,NCI-H226,> 100 µM (inactive)
same,GI50,RXF 393,> 100 µM (inactive)
same,GI50,PC-3,> 100 µM (inactive)
same,GI50,SK-MEL-28,> 100 µM (inactive)
same,GI50,HCC 2998,> 100 µM (inactive)
same,GI50,MDA-N,> 100 µM (inactive)
same,GI50,NCI/ADR-RES,> 100 µM (inactive)
same,GI50,MDA-MB-435,> 100 µM (inactive)
same,GI50,HCT-15,> 100 µM
same,GI50,BT-549,> 100 µM (inactive)
same,GI50,SF-295,> 100 µM (inactive)
same,GI50,OVCAR-4,> 100 µM (inactive)
same,GI50,HOP-62,> 100 µM (inactive)
same,GI50,CAKI-1,> 100 µM (inactive)
same,GI50,ACHN,> 100 µM (inactive)
same,GI50,NCI-H460,> 100 µM (inactive)
same,GI50,Malme-3M,> 100 µM (inactive)
same,GI50,DU-145,> 100 µM (inactive)
same,GI50,SW-620,> 100 µM (inactive)
same,GI50,SK-MEL-2,> 100 µM (inactive)
same,GI50,HT-29,> 100 µM (inactive)
same,GI50,UACC-257,> 100 µM (inactive)
same,GI50,T47D,> 100 µM (inactive)
same,GI50,SK-MEL-5,> 100 µM (inactive)
same,GI50,OVCAR-3,0.288 µM (active)
same,GI50,MOLT-4,> 100 µM (inactive)
same,GI50,LOX IMVI,> 100 µM (inactive)
same,GI50,U-251,> 100 µM (inactive)
same,GI50,OVCAR-5,> 100 µM (inactive)
same,GI50,IGROV-1,> 100 µM (inactive)
same,GI50,786-0,> 100 µM (inactive)
same,GI50,SK-OV-3,> 100 µM (inactive)
same,GI50,K562,> 100 µM (inactive)
COc1c(-c2ccccc2)oc2c(CP(=O)(OC)OC)cccc2c1=O,GI50,CCRF-CEM,94.4 µM (inactive)
same,GI50,RPMI-8226,14.6 µM (inactive)
same,GI50,A549,> 100 µM (inactive)
same,GI50,SF-539,> 100 µM (inactive)
same,GI50,UACC-62,> 100 µM (inactive)
same,GI50,COLO 205,> 100 µM (inactive)
same,GI50,EKVX,> 100 µM (inactive)
same,GI50,UO-31,11.7 µM (inactive)
same,GI50,M14,> 100 µM (inactive)
same,GI50,SN12C,> 100 µM (inactive)
same,GI50,MDA-MB-231,> 100 µM (inactive)
same,GI50,A498,> 100 µM (inactive)
same,GI50,NCI-H522,> 100 µM (inactive)
same,GI50,NCI-H23,68.2 µM (inactive)
same,GI50,SR,> 100 µM (inactive)
same,GI50,MCF7,> 100 µM (inactive)
same,GI50,HCT-116,> 100 µM (inactive)
same,GI50,RXF 393,> 100 µM (inactive)
same,GI50,PC-3,> 100 µM (inactive)
same,GI50,HCC 2998,> 100 µM (inactive)
same,GI50,MDA-N,> 100 µM (inactive)
same,GI50,MDA-MB-435,> 100 µM (inactive)
same,GI50,BT-549,41.1 µM (inactive)
same,GI50,SF-295,> 100 µM (inactive)
same,GI50,HOP-62,> 100 µM (inactive)
same,GI50,CAKI-1,2.12 µM (inactive)
same,GI50,TK-10,> 100 µM (inactive)
same,GI50,Malme-3M,> 100 µM (inactive)
same,GI50,DU-145,> 100 µM (inactive)
same,GI50,SK-MEL-2,> 100 µM (inactive)
same,GI50,UACC-257,> 100 µM (inactive)
same,GI50,T47D,> 100 µM (inactive)
same,GI50,SK-MEL-5,> 100 µM (inactive)
same,GI50,OVCAR-3,> 100 µM (inactive)
same,GI50,MOLT-4,> 100 µM (inactive)
same,GI50,U-251,> 100 µM (inactive)
same,GI50,OVCAR-5,> 100 µM (inactive)
same,GI50,IGROV-1,> 100 µM (inactive)
same,GI50,786-0,> 100 µM (inactive)
same,GI50,SK-OV-3,> 100 µM (inactive)
same,GI50,K562,> 100 µM (inactive)
N#Cc1c2c(c(Nc3cccc(C(F)(F)F)c3)n3c1nc1ccccc13)CCCC2,GI50,RPMI-8226,19.4 µM (inactive)
same,GI50,SF-539,16.3 µM (inactive)
same,GI50,COLO 205,> 100 µM (inactive)
same,GI50,EKVX,20.8 µM (inactive)
same,GI50,SN12C,22.8 µM (inactive)
same,GI50,MDA-MB-231,17.5 µM (inactive)
same,GI50,SNB-75,10.6 µM (inactive)
same,GI50,A498,26.8 µM (inactive)
same,GI50,NCI-H522,1.47 µM (inactive)
same,GI50,NCI-H23,20.9 µM (inactive)
same,GI50,OVCAR-8,15.1 µM (inactive)
same,GI50,HCT-116,22.3 µM (inactive)
same,GI50,NCI-H226,26.5 µM (inactive)
same,GI50,RXF 393,22.7 µM (inactive)
same,GI50,SK-MEL-28,18.2 µM (inactive)
same,GI50,MDA-N,15 µM (inactive)
same,GI50,NCI/ADR-RES,14.8 µM (inactive)
same,GI50,MDA-MB-435,28.4 µM (inactive)
same,GI50,HCT-15,39.2 µM
same,GI50,BT-549,30.1 µM (inactive)
same,GI50,SF-268,15.2 µM (inactive)
same,GI50,SF-295,21.8 µM (inactive)
same,GI50,OVCAR-4,13.9 µM (inactive)
same,GI50,HOP-62,16 µM (inactive)
same,GI50,CAKI-1,22.5 µM (inactive)
same,GI50,TK-10,16.3 µM (inactive)
same,GI50,ACHN,27.3 µM (inactive)
same,GI50,NCI-H460,23.1 µM (inactive)
same,GI50,Malme-3M,21.3 µM (inactive)
same,GI50,DU-145,21.3 µM (inactive)
same,GI50,SW-620,39.1 µM (inactive)
same,GI50,HT-29,16.2 µM (inactive)
same,GI50,UACC-257,22.2 µM (inactive)
same,GI50,T47D,> 100 µM (inactive)
same,GI50,HOP-92,3.99 µM (inactive)
same,GI50,SK-MEL-5,60.8 µM (inactive)
same,GI50,OVCAR-3,14.6 µM (inactive)
same,GI50,MOLT-4,15.2 µM (inactive)
same,GI50,LOX IMVI,14.8 µM (inactive)
same,GI50,U-251,11.5 µM (inactive)
same,GI50,OVCAR-5,18.9 µM (inactive)
same,GI50,786-0,13.1 µM (inactive)
same,GI50,SK-OV-3,17.1 µM (inactive)
same,GI50,KM12,81.3 µM (inactive)
